Reference: patent US20240156790A1, “COMPOUNDS, COMPOSITIONS, AND METHODS FOR MODULATING FERROPTOSIS AND TREATING EXCITOTOXIC DISORDERS” (THE TRUSTEES OF COLUMBIA UNIVERSITY IN THE CITY OF NEW YORK, priority 2018, published 2024)

Assays:
[1] = Microsomal stability, human liver microsomes (Table 1); assay type: in vitro ADME; conditions: liver microsomes; Human: Pooled, 50 donors; read-out: Microsomal Stability t1/2 (converted)
[2] = Plasma stability, human (Table 1); assay type: in vitro ADME
[3] = Microsomal stability, rat (Table 1); assay type: in vitro ADME; conditions: liver microsomes; Rat: Sprague Dawley; read-out: Microsomal Stability t1/2 (converted)
[4] = PHB4082 IP PK Study (plasma, brain, liver, kidney); assay type: in vivo, C57BL/6 mice
Protocol: C57BL/6 mice (8-weeks of age and ˜25 g weight) were weighed before injection and divided into groups of two male and female mice per cage. PHB4082 was dissolved in 5% DMSO/95% of 65% v/v of 25% w/v 2-hydroxypropyl-3-cyclodextrin (Cayman Chemical) dissolved in 20% EtOH, 30% v/v Poly(ethylene glycol)-400 (Sigma Aldrich 202398), 5% v/v Tween 80 (Fluka 59924) to create a 2 mg/mL Solution. The same formulation without PHB4082 was used as a vehicle control. The solution was sterilized using a […] Steriflip filter unit (Thomas Scientific 1189Q46) and stored at 4° C. Mice were dosed IP and euthanized by CO2 asphyxiation for 3 min at 0, 1, 2, 4, and 8 h after administration. To ensure that the vehicle was well-tolerated, four mice were treated with vehicle and euthanized 4 h after administration. ˜0.5 mL of blood was collected via cardiac puncture and immediately put in K3 EDTA microtubes ([…] 41.1504.105) and kept on ice. Organs were harvested, placed in Eppendorf tubes, and frozen on dry ice. Blood samples were centrifuged for 10 min at 2,100×g at 4° C., then plasma was transferred to a clean tube and frozen on dry ice. Organ samples were weighed and placed in hard tissue homogenizing tubes (Omni International 19-628) and a volume of DEPC-treated nuclease-free water (IBI Scientific IB42200) was added to make a 500 mg/mL solution and homogenized using the Omni Bead Ruptor 4 at speed 5 for 30 seconds. PHB4082 was extracted from plasma or organ homogenate by adding 900 μL acetonitrile to 100 μL plasma or organ homogenate. Samples were mixed by vortexing and allowed to extract overnight at 4° C. prior to mixing for at least 5 min by rotating at room temperature, vortexing, and sonicating for at least 30 second prior to centrifugation for 10 min at 4,000×g and 4° C. The supernatant was then transferred to a glass vial and dried under nitrogen. After drying, the samples were resuspended in 100 μL of methanol and analyzed by UPLC-MS described below. The concentration of PHB4082 was determined against a standard curve with a linear fit and the data plot in GraphPad Prism 9 and fit with a one phase decay.
To evaluate whether PHB4082 was a suitable candidate for in vivo studies, we performed a pharmacokinetic study of PHB4082 in C57BL/6 mice at ˜8 weeks of age. To evaluate sex-specific effects on compound metabolism, two male and two female mice were used for each condition. Mice were dosed at 20 mg/kg via intraperitoneal (IP) injection and the injection volume ranged from 180 uL to 300 uL based on different body weights. […] Extracts were analyzed via UPLC-MS and the concentration of compound determined against a standard curve ran concurrently with samples.

Row | Compound | half-life [1] [min] | Plasma Stability at six hours (% remaining) [2] [%] | half-life [3] [min] | accumulation in plasma and brain ([4]; 20 mg/kg IP) [nM] | tissue accumulation, in words ([4]; IP) | concentration in brain ([4]; PK study of PHB4082) | concentration at 8 h ([4]; both sexes, C57BL/6, mouse, kidney, intraperitoneal, 20 mg/kg IP, at eight hours) [µM]
1 | CCOC(=O)c1ccc(NC2CCCCC2)c(N)c1 [Fer-1, Ferrostatin-1, reference compound] | 11.4 | 100 | 3 | – | – | – | –
2 | Cc1noc(-c2ccc(NC3CCCCC3)c(NC3CCCCC3)c2)n1 [PHB4082, N1,N2-dicyclohexyl-4-(3-methyl-1,2,4-oxadiazol-5-yl)benzene-1,2-diamine] | – | – | – | ~100 | stably accumulates in mouse kidney with minimal accumulation observed in brain | around 200 nM | 1.8
